According to patent publication US8691186B2, “Imaging infection with compounds that bind to thymidine kinase” (priority 2004, dated 2014):
Converted amounts (≈) assume the structure as drawn.

Assays:
Escherichia coli = experiment: In vitro bacterial susceptibility assay, wild type E. coli; format: cell-based; details: for Susceptibility of E. coli to nucleoside analog (growth inhibition): in vitro, Luria broth, 37° C.
Method: (§1) 1-(2′-deoxy-2′-fluoro-β-D-arabinofuranosyl)-5-iodouracil (FIAU) (Moravek catalog no. M251) and penciclovir (Moravek catalog no. M972) were purchased from Moravek Biochemicals (Brea, Calif.). Zidovudine was purchased from Glaxo Wellcome. Bacterial susceptibility tests were performed in 96-well microtiter plates (VWR Scientific), with serial dilutions of drug placed in each well. Each well was inoculated with Escherichia coli (Yale University E. coli Genetic Stock Center, New Haven, Conn.) and grown in Luria broth (Invitrogen) at 37° C. E. coli TK mutants were generated by selecting for spontaneously resistant colonies on plates containing 1 mg/ml Zidovudine. Ten resistant clones were selected and screened for deletions in the TK gene by using the PCR primers SZ46-eTKKO20F and (5′-[…]-3′ (SEQ ID NO: 1)) SZ49-eTK-K0789R (5′-ATCAAGACGCAGCACCATG-3′ (SEQ ID NO: 2)). […] As a control for integrity of the DNA of this clone, its 16S rRNA gene was amplified by using the primers SZ-16S-Ecoli993F (5′-ACATCCACGGAAGTTT-TCAG-3′ (SEQ ID NO: 3)) SZ 16S-Ecoli454R (5′-CCGAAGGTTAAGC-TACCTAC-3′ (SEQ ID NO: 4)).
To determine whether endogenous bacterial TK could provide a reporter enzyme suitable for imaging, the susceptibility of E. coli to a variety of common nucleoside analogs was examined in vitro.
(§2) In vitro susceptibility tests were performed on C. novyi-NT using 96 well plates containing two-fold serial dilutions of FIAU (Moravek Biochemicals) in reinforced clostridial media (Difco). Approximately, 10^5-10^6 bacteria were inoculated into each well and incubated at 37 C. overnight in an anaerobic chamber. C. novyi-NT growth was measured using an OD600. In order to test the mechanism of action of FIAU on bacteria, the thymidine kinase (TK) gene in E. coli was knocked out. An in vitro FIAU susceptibility test comparing wild type E. coli with the mutant TK deficient E. coli was preformed. 96 well plates were used containing two-fold serial dilutions of FIAU in Lauria Broth. Approximately, 10^5-10^6 bacteria were inoculated into each well and incubated at 37 C. overnight. Growth was measured using OD600.

WT E. coli = experiment: In vivo imaging of WT E. coli thigh infection in mice; parameters: species or system Escherichia coli
Method: (§3) E. coli strains or clinical isolates from the Johns Hopkins Hospital Microbiology Laboratory, including Staphylococcus aureus 29213 and 25923, Streptococcus pneumoniae 49619, Enterococcus faecalis 49532, and Staphylococcus epidermidis F362, were used to create experimental infections. Bacteria were grown to log phase in Mueller Hinton Broth with Cations (Remel, Lenexa, Kans.) or BBL Todd Hewitt Broth (Becton Dickinson). Localized infections were generated by injecting 1×10^9 E. coli and ≈1×10^8 of the other bacterial strains into mouse thighs. […] To quantify the minimal number of bacteria required to generate signals upon imaging, mice were injected in the thigh with various amounts of S. aureus 25923. One hour later, the mice were killed, the muscles were harvested and homogenized, and the extracts spread on blood agar plates (Becton Dickinson) for colony counting.
(§4) Mice were injected with 225 μCi of [^125I]FIAU via the tail vein and imaged at various time points thereafter. Before imaging, mice were anesthetized via s.c. administration of acepromazine and ketamine. Each scan took min with a dedicated small-animal single-photon emission computed tomography (SPECT)/computed tomography (CT) camera (Gamma Medica X-SPECT, Northridge, Calif.) in planar acquisition mode using a low-energy high-resolution (LEHR) parallel-hole collimator. For each bacterial strain used, at least two mice were injected and imaged. To obtain SPECT/CT images, animals were first scanned for ≈40 min by using a small-animal SPECT camera in tomographic acquisition mode, using two LEHR parallel-hole collimators. The animals then underwent CT by using appropriate fiducial markers that allowed coregistration.
[^125I]FIAU was synthesized by standard methods and injected i.v. into animals 6 h after intramuscular inoculations of bacteria into the thighs of mice. […] Signals from the infectious lesions could be seen as early as 2 h after injection of [^125I]FIAU and were optimal 16 h after injection.

[1] = test system: TK-deficient (TK−) strain of E. coli; experiment: In vivo imaging of TK- E. coli thigh infection in mice; parameters: species or system Escherichia coli; details: same mice, opposite thighs
Method: as §3
(§5) Mice were injected with 225 μCi of [^125I]FIAU via the tail vein and imaged at various time points thereafter. Before imaging, mice were anesthetized via s.c. administration of acepromazine and ketamine. Each scan took min with a dedicated small-animal single-photon emission computed tomography (SPECT)/computed tomography (CT) camera (Gamma Medica X-SPECT, Northridge, Calif.) in planar acquisition mode using a low-energy high-resolution (LEHR) parallel-hole collimator. […]

[2] = test system: Enterococcus faecalis 49532; experiment: In vivo imaging of E. faecalis thigh infection in mice; details: mouse thigh infection
Method: as §3, §5

[3] = test system: Staphylococcus aureus 29213 and 25923; experiment: In vivo imaging of S. aureus thigh infection in mice; details: mouse thigh infection
Method: as §3, §5

[4] = test system: Staphylococcus epidermidis F362; experiment: In vivo imaging of S. epidermidis thigh infection in mice; details: mouse thigh infection
Method: as §3, §5

[5] = test system: Streptococcus pneumoniae 49619; experiment: In vivo imaging of S. pneumoniae thigh infection in mice; details: mouse thigh infection
Method: as §3, §5

[6] = test system: E. faecalis, S. aureus, S. epidermidis, and S. pneumoniae; experiment: Time course of imaging of infections caused by pathogenic bacteria in mice; format: in vivo
Method: as §3, §4
Accordingly, this time point was chosen for detailed analyses. Biodistribution studies were performed in mice injected with 1×10^8 S. aureus 25923 into one thigh. Six hours later, the mice were injected with 2 μCi of [^125I]FIAU, and, after another 24 h, the mice were killed, their organs were harvested, and radioactivity was determined. […]

S. aureus 25923 = experiment: Minimal number of bacteria that could be imaged in mouse thigh; format: in vivo, Staphylococcus aureus; details: 1 h after bacterial injection
Method: as §3
To determine the minimal number of bacteria that could be imaged with this approach, various numbers of S. aureus 25923 were injected into mouse thighs. One hour later, the thigh tissue was excised, homogenized, and spread on blood agar plates. The 1-h time point was chosen because this was the earliest time point at which injections of [^125I]FIAU consistently produced discernable scintigraphic images of infectious foci. As few as 2×10^6 colony-forming units per gram of muscle tissue produced discernable signals.

C. novyi-NT [7] = experiment: Imaging of intratumoral C. novyi-NT infection in tumor-bearing mice; format: in vivo, Clostridium novyi-NT
Method: All animal experiments were overseen and approved by the Animal Welfare Committee of The John Hopkins University and were in compliance with university standards. Six- to 8-wk-old athymic nu/nu or BALB/c mice, purchased from Harlan Bioproducts for Science (Indianapolis), were used for tumor implantation studies. Five million cells were injected s.c. into the right flank of each mouse. Tumor volume was calculated as length×width^2×0.5, and mice were treated with Clostridium novyi-NT spores when tumors occupied ˜250 mm^3. C. novyi-NT spores were prepared as described (15), and mice were i.v. injected with 300 million spores suspended in 250 μl of PBS.
as §4
BALB/c mice bearing CT-26 mouse colon tumors were treated with a single i.v. injection of C. novyi-NT and [^125I]FIAU was administered 24 h later.
For in vivo studies, FIAU was labeled with 1-125. The optimal time course for imaging mice harboring HCTZ 16 colon cancer xenografts was determined empirically by varying the time of injection of FIAU in relation to C. novyi-NT. Biodistribution studies were performed in 12 athymic nu/nu mice harboring HCTZ 16 xenografts ˜350-400 mm^3, six of which were injected with 300 million C. novyi-NT spores 24 hrs prior to 2 uCi of 1-125 FIAU. Eight hours after I-125 FIAU injection, all twelve mice were euthanized by cervical dislocation and the brain, lungs, heart, blood, small and large intestine, liver, kidneys, muscle and tumor were harvested and weighed. The activity in each tissue was measured using an automated gamma counter (LKB Wallace 1282 Compugamma CS Universal Gamma Counter). The percent-injected dose per gram of tissue (% ID/g) was calculated by comparison with samples of a standard dilution of the initial dose. […]

TK deficient E. coli = experiment: In vitro bacterial susceptibility assay, TK-deleted E. coli; format: cell-based, Escherichia coli; details: for Susceptibility of TK gene-deleted E. coli derivative: in vitro
Method: as §1
To determine whether the TK gene was responsible for this sensitivity, a derivative of E. coli in which the TK gene was deleted was created. […] Because FIAU can be radiolabeled by using commercially available reagents and has been successfully used to image tumor cells transfected with HSV1-TK, it was elected to test its potential for imaging bacterial infections.
as §2, with “96 well plates were used containing two-fold serial dilutions of FIAU in Lauria Broth. Approximately, 10^5-10^6 bacteria were inoculated into each well and incubated at 37 C. overnight.” left out

C. novyi-NT [8] = experiment: In vitro susceptibility test on C. novyi-NT; format: cell-based, Clostridium novyi-NT; details: reinforced clostridial media, overnight, anaerobic, OD600
Method: as §2

[9] = BALB/c mice, CT-26 tumors, tracer 24 h after C. novyi-NT i.v.

Nc1nc2c(ncn2CCC(CO)CO)c(=O)[nH]1 [penciclovir]
Susceptibility of E. coli to nucleoside analog (growth inhibition) (Escherichia coli): resistant

Nc1nc2c(ncn2COC(CO)CO)c(=O)[nH]1 [genciclovir]
Susceptibility of E. coli to nucleoside analog (growth inhibition) (Escherichia coli): resistant

O=c1[nH]c(=O)n([C@@H]2O[C@H](CO)[C@@H](O)[C@@H]2F)cc1[125I] [[^125I]FIAU, 2′-fluoro-2′deoxy-1-beta-D-arabinofuranosyl-5-iodo-uracil]
Earliest time at which signals from infectious lesions could be seen after injection (WT E. coli; WT E. coli thigh infection): 2 h | Time after injection at which signals were optimal (WT E. coli; WT E. coli thigh infection): 16 h | Uptake within infected thighs (whole-body planar scintigram) (WT E. coli; tracer i.v. 6 h after i.m. inoculation): demonstrated the uptake | Uptake in thighs inoculated with TK- E. coli [1]: no discernable uptake | Imaging of infectious foci due to E. faecalis [2]: readily imaged | Imaging of infectious foci due to S. aureus [3]: readily imaged | Imaging of infectious foci due to S. epidermidis [4]: readily imaged | Imaging of infectious foci due to S. pneumoniae [5]: readily imaged | Signal-to-noise ratio in infectious foci 24 h after administration ([6]; 24 h after administration): high signal-to-noise ratios | Signal-to-noise ratio by 48 h after administration ([6]; 48 h after administration of the tracer): very high signal-to-noise ratios | Earliest time at which robust signals could be observed after administration ([6]; mouse thigh infections, patient-derived strains): 4 h | Minimal number of bacteria producing discernable signals (S. aureus 25923): 2×10^6 colony-forming units per gram of muscle tissue | Earliest time at which tumors could be visualized after injection of tracer (C. novyi-NT [7]; [9]): 16 h | Time of maximum uptake after injection (C. novyi-NT [7]; [9]): 24 to 48 h | Uptake in tumors not treated with C. novyi-NT (C. novyi-NT [7]; CT-26 tumors, no C. novyi-NT): No uptake | Imaging of tumor types responsive to bacteriolytic therapy (C. novyi-NT [7]; HCT116, HuCCTI or CT26 tumors, after C. novyi-NT spores): able to be imaged

O=c1[nH]c(=O)n([C@@H]2O[C@H](CO)[C@@H](O)[C@@H]2F)cc1I [FIAU, 1-(2′-deoxy-2′-fluoro-β-D-arabinofuranosyl)-5-iodouracil]
Susceptibility of E. coli to nucleoside analog (growth inhibition) (Escherichia coli): quite sensitive | log10 IC50 (M) (Escherichia coli; wild type E. coli, Lauria Broth, overnight, OD600): -10 | Susceptibility of TK gene-deleted E. coli derivative (TK deficient E. coli): highly resistant | Growth inhibition of TK deficient E. coli (TK deficient E. coli; two-fold serial dilutions, overnight, OD600): not inhibited at any concentration | minimum inhibitory concentration 50 (MIC50) (C. novyi-NT [8]): ~20 µg/mL (≈ 53.8 µM)

Cc1cn([C@H]2C[C@H](N=[N+]=[N-])[C@@H](CO)O2)c(=O)[nH]c1=O [Zidovudine]
Susceptibility of E. coli to nucleoside analog (growth inhibition) (Escherichia coli): quite sensitive | Susceptibility of TK gene-deleted E. coli derivative (TK deficient E. coli): moderately resistant
